Legend:
[1] = target: T1, cutinase from Colletotrichum capsici (Colletotrichum truncatum, UniProt P10951); assay: turbidimetric hydrolysis assay (OD630); format: biochemical; details: 30°C; substrate emulsion in 25 mM potassium phosphate pH 8.0, 0.5% gum arabic
T1 construct: gene CUTA; purchased recombinant protein

[2] = target: T1, cutinase from Colletotrichum capsici; assay: turbidimetric ester hydrolysis assay (OD630); format: biochemical; details: read-out: relative activity at 500 μg/ml berberine

T1 sequence (P10951 17-228): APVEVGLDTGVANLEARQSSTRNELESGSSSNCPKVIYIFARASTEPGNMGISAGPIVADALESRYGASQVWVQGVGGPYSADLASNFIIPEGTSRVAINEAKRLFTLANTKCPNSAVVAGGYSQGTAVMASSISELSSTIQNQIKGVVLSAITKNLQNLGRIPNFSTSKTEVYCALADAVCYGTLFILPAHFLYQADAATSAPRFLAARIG

Structure (SMILES) | turbidimetric hydrolysis assay (OD630) [1] | activity at 500 µg/mL [2] [%]
CCCCCCCC(=O)OCC(COC(=O)CCCCCCC)OC(=O)CCCCCCC [Glyceryl trioctanoate] | larger reduced enzyme activities for longer chain substrates glyceryl trioctanoate and isopropyl myristate | –
COc1ccc2cc3[n+](cc2c1OC)CCc1cc2c(cc1-3)OCO2 [berberine] | – | 78
CCCC(=O)OCC(COC(=O)CCC)OC(=O)CCC [Tributyrin] | For short chain substrate tributyrin, berberine conferred slight decrease of relative activity | –
